Measurements reported in US4939159A, “Azaindole derivatives useful as cholesterol biosynthesis inhibitors” (Sandoz Pharm. Corp., priority 1989, dated 1990).

Tested on: 3β-hydroxysterol synthesis
Assay: Test B. In Vivo Cholesterol Biosynthesis Inhibition Test
Settings: Rattus norvegicus, po; rats, orally administered; read-out: ED50 (dose producing 50% inhibition of 3β-hydroxysterol synthesis)
Description: Test B. In Yivo Cholesterol Biosynthesis Inhibition Test:
In this test the rats are orally administered the test substance (compound of Formula I) at a dose of 0.025-200 mg/kg body weight. The obtained ED50 the dose of the test substance observed or calculated to produce a 50% inhibition of 3β -hydroxysterol synthesis.

SMILES: CC[C@H](C)C(=O)O[C@H]1C[C@@H](C)C=C2C=C[C@H](C)[C@H](CC[C@@H]3C[C@@H](O)CC(=O)O3)[C@H]21 [Mevinolin]
- ED50: 0.38 mg/kg
